Tests used:
[1] = target: MDR-1 gene product P-glycoprotein (Homo sapiens, UniProt P08183); assay: P-glycoprotein-mediated substrate efflux; format: cell-based
cells = assay: apoptosis induction / cell cycle measurements in cells; format: cell-based

Chain of MDR-1 gene product P-glycoprotein (P08183 whole entry): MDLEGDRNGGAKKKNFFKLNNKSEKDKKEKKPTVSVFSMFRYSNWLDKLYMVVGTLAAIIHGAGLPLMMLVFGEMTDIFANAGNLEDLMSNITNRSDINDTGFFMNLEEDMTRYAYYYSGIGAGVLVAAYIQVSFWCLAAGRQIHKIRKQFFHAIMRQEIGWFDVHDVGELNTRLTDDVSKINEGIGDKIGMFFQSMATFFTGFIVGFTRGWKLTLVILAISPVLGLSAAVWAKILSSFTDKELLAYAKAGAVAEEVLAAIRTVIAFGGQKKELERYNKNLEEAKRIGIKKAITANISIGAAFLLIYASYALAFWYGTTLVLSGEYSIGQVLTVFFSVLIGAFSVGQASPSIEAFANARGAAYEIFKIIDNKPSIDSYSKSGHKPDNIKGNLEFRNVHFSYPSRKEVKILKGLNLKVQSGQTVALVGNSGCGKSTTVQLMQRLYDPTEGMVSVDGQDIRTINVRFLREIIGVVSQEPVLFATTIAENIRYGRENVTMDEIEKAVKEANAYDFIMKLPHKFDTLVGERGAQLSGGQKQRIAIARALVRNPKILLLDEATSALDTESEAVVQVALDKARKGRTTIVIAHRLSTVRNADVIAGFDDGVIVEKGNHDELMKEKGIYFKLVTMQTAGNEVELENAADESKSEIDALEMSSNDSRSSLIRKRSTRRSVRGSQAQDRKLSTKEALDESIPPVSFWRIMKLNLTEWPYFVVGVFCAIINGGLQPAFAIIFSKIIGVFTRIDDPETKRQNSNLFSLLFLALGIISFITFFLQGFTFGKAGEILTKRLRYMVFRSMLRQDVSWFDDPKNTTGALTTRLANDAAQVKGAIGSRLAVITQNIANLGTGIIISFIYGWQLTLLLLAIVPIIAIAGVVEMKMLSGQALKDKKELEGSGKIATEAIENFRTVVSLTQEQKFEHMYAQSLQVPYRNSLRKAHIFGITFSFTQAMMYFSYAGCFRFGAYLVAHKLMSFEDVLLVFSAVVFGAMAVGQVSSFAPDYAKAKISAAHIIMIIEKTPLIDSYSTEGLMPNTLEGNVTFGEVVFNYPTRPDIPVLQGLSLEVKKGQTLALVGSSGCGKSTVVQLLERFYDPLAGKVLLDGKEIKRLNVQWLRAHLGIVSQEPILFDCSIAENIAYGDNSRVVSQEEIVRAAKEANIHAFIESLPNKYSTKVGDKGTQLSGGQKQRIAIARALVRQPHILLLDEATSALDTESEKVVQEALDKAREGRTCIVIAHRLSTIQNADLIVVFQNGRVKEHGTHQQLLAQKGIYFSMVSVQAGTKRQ

effect on P-glycoprotein [1]: ineffective
retention in cells / efflux [1]: pumped out of the cells
Structure (SMILES): COc1cc([C@@H]2c3cc4c(cc3[C@@H](O[C@@H]3O[C@@H]5CO[C@@H](C)O[C@H]5[C@H](O)[C@H]3O)[C@H]3COC(=O)[C@H]23)OCO4)cc(OC)c1O [etoposide]
apoptosis is complete after (cells): 48 h
